Data reported in the NIST ThermoML archive (doi:10.1016/j.jct.2016.03.026).
“And” between values parts separate entries of the source, which are not always exact repeats. Equal entries are not always repeated. Numbers after ± are expanded uncertainties.

Assay: xn = mol fraction of the nth substance listed
Conditions: Fluid (supercritical or subcritical phases); for mass density: 293.15 K, Vibrating tube method, x1 = 0.97; for speed of sound: 298.13 K, Frequency=5 MHz, Pulse-echo method

O=C=O [carbon dioxide] + CO
Conditions	mass density [kg/m3]
14700 kPa	904.75 ± 0.81
14725 kPa	904.95 ± 0.81
14750 kPa	905.15 ± 0.81
14775 kPa	905.36 ± 0.81
14800 kPa	905.48 ± 0.81
14825 kPa	905.68 ± 0.81
14850 kPa	905.88 ± 0.81
14875 kPa	906.06 ± 0.81
14900 kPa	906.27 ± 0.81
14925 kPa	906.44 ± 0.81
14950 kPa	906.59 ± 0.81
14975 kPa	906.77 ± 0.81
15000 kPa	906.96 ± 0.81
15025 kPa	907.15 ± 0.81
15050 kPa	907.32 ± 0.81
15075 kPa	907.46 ± 0.81
15100 kPa	907.6 ± 0.81
15125 kPa	907.83 ± 0.81
15150 kPa	907.99 ± 0.81
15175 kPa	908.18 ± 0.81
15200 kPa	908.32 ± 0.81
15225 kPa	908.49 ± 0.81
15250 kPa	908.66 ± 0.81
15275 kPa	908.85 ± 0.81
15300 kPa	909.03 ± 0.81
15325 kPa	909.22 ± 0.81
15350 kPa	909.37 ± 0.81
15375 kPa	909.52 ± 0.81
15400 kPa	909.68 ± 0.81
15425 kPa	909.89 ± 0.81
15450 kPa	910.03 ± 0.81
15475 kPa	910.14 ± 0.81
15500 kPa	910.23 ± 0.81
15525 kPa	910.31 ± 0.81
15550 kPa	910.48 ± 0.81
15575 kPa	910.7 ± 0.81
15600 kPa	910.88 ± 0.81
15625 kPa	911.01 ± 0.81
15650 kPa	911.21 ± 0.81
15675 kPa	911.37 ± 0.81
15700 kPa	911.59 ± 0.81
15725 kPa	911.74 ± 0.81
15750 kPa	911.86 ± 0.81
15775 kPa	912.03 ± 0.81
15800 kPa	912.19 ± 0.81
15825 kPa	912.36 ± 0.81
15850 kPa	912.52 ± 0.81
15875 kPa	912.75 ± 0.81
15900 kPa	912.9 ± 0.81
15925 kPa	913.04 ± 0.81
15950 kPa	913.17 ± 0.81
15975 kPa	913.37 ± 0.81
16000 kPa	913.55 ± 0.81
16025 kPa	913.66 ± 0.81
16050 kPa	913.83 ± 0.81
16075 kPa	913.99 ± 0.81
16100 kPa	914.15 ± 0.81
16125 kPa	914.31 ± 0.81
16150 kPa	914.45 ± 0.81
16175 kPa	914.56 ± 0.81
16200 kPa	914.73 ± 0.81
16225 kPa	914.89 ± 0.81
16250 kPa	915.05 ± 0.81
16275 kPa	915.22 ± 0.81
16300 kPa	915.38 ± 0.81
16325 kPa	915.54 ± 0.81
16350 kPa	915.71 ± 0.81
16375 kPa	915.87 ± 0.81
16400 kPa	916.03 ± 0.81
16425 kPa	916.2 ± 0.81
16450 kPa	916.37 ± 0.81
16475 kPa	916.52 ± 0.81
16500 kPa	916.75 ± 0.81
16525 kPa	916.93 ± 0.81
16550 kPa	917.01 ± 0.81
16575 kPa	917.25 ± 0.81
16600 kPa	917.37 ± 0.81
16625 kPa	917.58 ± 0.81
16650 kPa	917.7 ± 0.81
16675 kPa	917.9 ± 0.81
16700 kPa	918.08 ± 0.81
16725 kPa	918.24 ± 0.81
16750 kPa	918.41 ± 0.81
16775 kPa	918.57 ± 0.81
16800 kPa	918.73 ± 0.81
16825 kPa	918.9 ± 0.81
16850 kPa	919.06 ± 0.81
16875 kPa	919.22 ± 0.81
16900 kPa	919.43 ± 0.81
16925 kPa	919.55 ± 0.81
16950 kPa	919.71 ± 0.81
16975 kPa	919.95 ± 0.81
17000 kPa	920.08 ± 0.81
17025 kPa	920.29 ± 0.81
17050 kPa	920.44 ± 0.81
17075 kPa	920.59 ± 0.81
17100 kPa	920.73 ± 0.81
17125 kPa	920.92 ± 0.81
17150 kPa	921.1 ± 0.81
17175 kPa	921.27 ± 0.81
17200 kPa	921.4 ± 0.81
17225 kPa	921.53 ± 0.81
17250 kPa	921.7 ± 0.81
17275 kPa	921.85 ± 0.81
17300 kPa	922.01 ± 0.81
17325 kPa	922.18 ± 0.81
17350 kPa	922.33 ± 0.81
17375 kPa	922.5 ± 0.81
17400 kPa	922.71 ± 0.81
17425 kPa	922.85 ± 0.81
17450 kPa	922.99 ± 0.81
17475 kPa	923.17 ± 0.81
17500 kPa	923.34 ± 0.81
17525 kPa	923.48 ± 0.81
17550 kPa	923.64 ± 0.81
17575 kPa	923.77 ± 0.81
17600 kPa	923.94 ± 0.81
17625 kPa	924.11 ± 0.81
17650 kPa	924.26 ± 0.81
17675 kPa	924.4 ± 0.81
17700 kPa	924.55 ± 0.81
17725 kPa	924.7 ± 0.81
17750 kPa	924.87 ± 0.81
17775 kPa	925.03 ± 0.81
17800 kPa	925.19 ± 0.81
17825 kPa	925.35 ± 0.81
17850 kPa	925.49 ± 0.81
17875 kPa	925.61 ± 0.81
17900 kPa	925.82 ± 0.81
17925 kPa	925.93 ± 0.81
17950 kPa	926.13 ± 0.81
17975 kPa	926.25 ± 0.81
18000 kPa	926.42 ± 0.81
18025 kPa	926.56 ± 0.81
18050 kPa	926.67 ± 0.81
18075 kPa	926.86 ± 0.81
18100 kPa	927.05 ± 0.81
18125 kPa	927.16 ± 0.81
18150 kPa	927.35 ± 0.81
18175 kPa	927.46 ± 0.81
18200 kPa	927.66 ± 0.81
18225 kPa	927.75 ± 0.81
18250 kPa	927.94 ± 0.81
18275 kPa	928.06 ± 0.81
18300 kPa	928.22 ± 0.81
18325 kPa	928.38 ± 0.81
18350 kPa	928.5 ± 0.81
18375 kPa	928.68 ± 0.81
18400 kPa	928.85 ± 0.81
18425 kPa	928.95 ± 0.81
18450 kPa	929.11 ± 0.81
18475 kPa	929.27 ± 0.81
18500 kPa	929.45 ± 0.81
18525 kPa	929.53 ± 0.81
18550 kPa	929.71 ± 0.81
18575 kPa	929.88 ± 0.81
18600 kPa	929.97 ± 0.81
18625 kPa	930.13 ± 0.81
18650 kPa	930.29 ± 0.81
18675 kPa	930.46 ± 0.81
18700 kPa	930.61 ± 0.81
18725 kPa	930.69 ± 0.81
18750 kPa	930.86 ± 0.81
18775 kPa	931.01 ± 0.81
18800 kPa	931.17 ± 0.81
18825 kPa	931.25 ± 0.81
18850 kPa	931.43 ± 0.81
18875 kPa	931.59 ± 0.81
18900 kPa	931.74 ± 0.81
18925 kPa	931.9 ± 0.81
18950 kPa	931.99 ± 0.81
18975 kPa	932.14 ± 0.81
19000 kPa	932.3 ± 0.81
19025 kPa	932.45 ± 0.81
19050 kPa	932.6 ± 0.81
19075 kPa	932.74 ± 0.81
19100 kPa	932.87 ± 0.81
19125 kPa	933.01 ± 0.81
19150 kPa	933.14 ± 0.81
19175 kPa	933.29 ± 0.81
19200 kPa	933.42 ± 0.81
19225 kPa	933.56 ± 0.81
19250 kPa	933.7 ± 0.81
19275 kPa	933.83 ± 0.81
19300 kPa	933.97 ± 0.81
19325 kPa	934.1 ± 0.81
19350 kPa	934.24 ± 0.81
19375 kPa	934.38 ± 0.81
19400 kPa	934.51 ± 0.81
19425 kPa	934.64 ± 0.81
19450 kPa	934.79 ± 0.81
19475 kPa	934.91 ± 0.81
19500 kPa	935.12 ± 0.81
19525 kPa	935.24 ± 0.81
19550 kPa	935.36 ± 0.81
19575 kPa	935.49 ± 0.81
19600 kPa	935.62 ± 0.81
19625 kPa	935.75 ± 0.81
19650 kPa	935.88 ± 0.81
19675 kPa	936 ± 0.81
19700 kPa	936.18 ± 0.81
19725 kPa	936.26 ± 0.81
19750 kPa	936.44 ± 0.81
19775 kPa	936.57 ± 0.81
19800 kPa	936.69 ± 0.81
19825 kPa	936.81 ± 0.81
19850 kPa	936.93 ± 0.81
19875 kPa	937.05 ± 0.81
19900 kPa	937.17 ± 0.81
19925 kPa	937.36 ± 0.81
19950 kPa	937.48 ± 0.81
19975 kPa	937.6 ± 0.81
20000 kPa	937.71 ± 0.81

Conditions	speed of sound
10080 kPa, x1 = 0.7534	529.7 ± 1 m/s
14970 kPa, x1 = 0.925	538.3 ± 1 m/s
14980 kPa, x1 = 0.7534	600.9 ± 1 m/s
14980 kPa, x1 = 0.925	537.1 ± 1 m/s
14990 kPa, x1 = 0.925	536.5 ± 1 m/s and 539.1 ± 1 m/s
15060 kPa, x1 = 0.8502	554 ± 0.9 m/s
19950 kPa, x1 = 0.925	600.2 ± 1 m/s
19960 kPa, x1 = 0.925	602.2 ± 1 m/s
20000 kPa, x1 = 0.8502	613.8 ± 1 m/s
20000 kPa, x1 = 0.925	599.6 ± 1 m/s and 601.7 ± 1 m/s
20030 kPa, x1 = 0.7534	657.7 ± 1 m/s
24940 kPa, x1 = 0.8502	663.5 ± 1 m/s
24970 kPa, x1 = 0.925	651.7 ± 1 m/s
24990 kPa, x1 = 0.925	651.3 ± 1 m/s
25000 kPa, x1 = 0.925	652.9 ± 1 m/s and 653 ± 1 m/s
29950 kPa, x1 = 0.925	696.6 ± 1 m/s
29980 kPa, x1 = 0.925	696.1 ± 1 m/s
29990 kPa, x1 = 0.925	696.8 ± 1 m/s
30000 kPa, x1 = 0.8502	707.4 ± 1 m/s
30010 kPa, x1 = 0.925	695.5 ± 1 m/s
30030 kPa, x1 = 0.7534	746.7 ± 1 m/s
34980 kPa, x1 = 0.7534	783.5 ± 1.1 m/s
34990 kPa, x1 = 0.925	735.2 ± 1 m/s
35000 kPa, x1 = 0.925	736.1 ± 1 m/s
35020 kPa, x1 = 0.925	734.8 ± 1 m/s
35060 kPa, x1 = 0.8502	746.3 ± 1 m/s
39980 kPa, x1 = 0.925	771.2 ± 1 m/s
39990 kPa, x1 = 0.925	770.5 ± 1 m/s and 770.1 ± 1 m/s
40000 kPa, x1 = 0.925	771.3 ± 1 m/s
40030 kPa, x1 = 0.8502	780.8 ± 1.1 m/s
